Key:
GLUT1 = conditions: Perini et al., Diabetes 53:41-52, 2004; cited from earlier work
GLUT4 = conditions: cited from earlier work
[1] = tested on: 3T3-L1 adipocytes expressing HA-GLUT4 WT; assay: Continuous anti-HA antibody uptake (GLUT4 recycling) experiment; assay type: cell-based
Method: For continuous antibody uptake experiments, cells were incubated for 20 min with or without insulin, whereafter anti-HA (50 μg/ml) or non-relevant antibody was added. Cells that were used to determine the total amount of HA-GLUT4 were not incubated with antibody during this 37° C. incubation. After incubation, the cells were fixed and quenched as described above, and incubated for 20 min with 5% NSS and 0.1% saponin. Cells that were used to determine the total cellular amount of HA-GLUT4 were incubated for 60 min with anti-HA antibody or control antibody in PBS containing 2% NSS. All other cells were incubated with 2% NSS without antibody. Subsequently, the cells were incubated with ALEXA488-conjugated goat-anti-mouse antibody and ALEXA594-conjugated WGA, washed and analysed. The amount of specific anti-HA uptake was expressed as a percentage of total cellular immuno-reactive HA-GLUT4.
To analyze the exchange of GLUT4 with the cell surface under steady state conditions, studies were performed in which live cells were incubated with anti-HA antibody at 37° C. (FIG. 5). […] 3T3-L1 adipocytes expressing HA-GLUT4 WT were stimulated for 2 h with 200 nM insulin in the presence of anti-HA antibody, washed extensively, incubated for 2 h without insulin and anti-HA, and incubated for a further 20 min in the absence (FIG. 5C) or presence (FIG. 5D) of 200 nM insulin.
For quantification of anti-HA antibody uptake, cells were preincubated for 20 min in the presence or absence of insulin after which anti-HA antibody or control antibody was added for various times (FIG. 5E). Antibody uptake was determined by labeling cells with fluorescent secondary antibody after fixation. Antibody uptake was expressed as a percentage of post-fixation anti-HA labeling.
To study this non-recycling GLUT4 pool in adipocytes, 3T3-L1 adipocytes expressing HA-GLUT4 WT were incubated at 37° C. in the continuous presence of anti-HA antibody. Cells were incubated with or without 200 nM insulin for 20 min, after which anti-HA antibody was added in the continued presence or absence of insulin. Cells were incubated further for up to 180 min, fixed, permeablilized, and incubated with fluorescent secondary antibody. The level of anti-HA antibody taken up by the cells was then expressed as a percentage of total post-fixation anti-HA labeling of permeablilized cells.

[2] = tested on: 3T3-L1 adipocytes expressing HA-GLUT4 WT; assay: Inducing GLUT4 translocation with insulin followed by sucrose; assay type: cell-based; conditions: 0.3 or 0.6M sucrose for 2 hours after 20 minutes 200 nM insulin; serum free
Method: 3T3-L1 adipocytes expressing HA-GLUT4 WT were serum starved for 2 hours at 37° C. Following 20 minutes insulin stimulation with 200 nM insulin, cells were incubated for additional 2 hours in serum free medium supplemented with 0.2% BSA and 0.3 or 0.6M sucrose. After post-fixation anti-HA immunolabeling the level of cell surface HA-GLUT4 levels was determined as a percentage of total HA-GLUT4 detected after cell lysis. […] Furthermore, increasing concentrations of sucrose induce more GLUT4 to translocate to the plasma membrane in the presence of reduced levels of insulin.

[3] = tested on: HA-GLUT4 expressing 3T3-L1 adipocytes; assay: Model of insulin resistance (chronic insulin stimulation, then acute insulin); assay type: cell-based; conditions: for level of GLUT4 at the plasma membrane after chronic insulin: FIG. 12A
Method: 3T3-L1 adipocytes retrovirally infected with GLUT4 (described in Example 1) were incubated 24 hours or 48 hours either with 600 nM insulin or with medium alone. After this chronic insulin stimulation (as indicated in FIG. 10) at 37° C. in a CO2 incubator, cells were washed and 200 nM insulin was added for additional 10 or 30 minutes. Cell surface levels of HA-GLUT4 were measured using the fluorescence based assay described supra and expressed as a percentage of total HA-GLUT4 detected in the cell. The experiment was also performed with the HA-GLUT4 TAIL mutant
HA-GLUT4 expressing 3T3-L1 adipocytes were grown in 96 well plates, incubated for 2 hours or overnight in medium supplemented with 10% fetal calf serum or no serum. 200 nM insulin in case of acute stimulation and 600 nM insulin in case of chronic stimulation have been used. After overnight stimulation cells were washed and 200 nM fresh insulin was added for 10 or 30 mln.

[4] = tested on: 3T3-L1 adipocytes expressing HA-GLUT4; assay: Single cycle GLUT4 internalization experiment; assay type: cell-based
Method: For single cycle internalization experiments cells were stimulated for 20 min with 200 nM insulin after starvation and washed on ice with ice-cold DMEM containing 20 mM HEPES pH 7.4 and 0.2% BSA. Cells were incubated with 100 nM wortmannin or 200 nM insulin and either anti-HA (25 μg/ml) or non-relevant antibody (MOPC21) in DMEM/HEPES/BSA for 1 h on ice. Wortmanin was added to abolish insulin signaling. […] Cells were washed extensively, then either 100 nM wortmanin or 200 nM insulin in DMEM/HEPES/BSA was added. The plate was then transferred to 37° C. and at different times, formaldehyde was added to the wells to a concentration of 3%. After 5 min the formaldehyde was washed away and residual amounts were quenched. The cells were incubated for 20 min with 5% NSS in the absence of saponin, labeled with ALEXA488-conjugated goat-anti-mouse antibody and ALEXA594-conjugated WGA, washed and analysed as described above.
GLUT4 WT molecules that were labeled with anti-HA antibody on ice were rapidly cleared from the cell surface as indicated by the disappearance of GLUT4 at early time points after transfer of the cells from ice to 37° C. (FIG. 4). After approximately 5 min the level of GLUT4 at the PM reached steady state in the presence but not in the absence of insulin, indicating recycling of GLUT4 back to the PM in insulin-stimulated cells. […]

[5] = tested on: 3T3-L1 fibroblasts expressing HA-tagged GLUT4; assay: Fluorescence-based HA-GLUT4 translocation assay in fibroblasts; assay type: cell-based
[6] = tested on: HA-GLUT4-expressing 3T3-L1 adipocytes; assay: Fluorescence-based HA-GLUT4 translocation assay (GLUT4 at plasma membrane as percentage of total) in adipocytes; assay type: cell-based
Method: Retrovirally-transduced fibroblasts expressing HA-tagged GLUT 4 or a mutant therof were differentiated into adipocytes essentially as described above. These adipocytes were then subcultured for 30 hours. Insulin was then added at different time points, after which the cells were fixed in 3% formaldehyde. After washing and quenching with 50 mM glycine, cells were incubated for 20 min with 5% normal swine serum (NSS) in the absence or presence of 0.1% saponin to analyse the level of GLUT4 at the plasma membrane (PM) or the total cellular GLUT4 content, respectively. Cells were incubated for 60 min with a saturating concentration of either an antibody directed against the HA tag or a control non-relevant antibody (mouse IgG MOPC21) in PBS containing 2% NSS. After extensive washing, the cells were incubated for 20 min with 5% NSS in the presence or absence of 0.1% saponin to permeabilize all cells. Cells were incubated for 60 min with saturating concentrations of ALEXA488-conjugated goat-anti-mouse antibody (20 μg/ml) and ALEXA594-conjugated WGA (10 μg/ml) in PBS containing 2% NSS. After washing, fluorescence ([…]) was measured using the bottom-reading mode in a fluorescence microtiter plate reader (FLUOstar Galaxy, BMG Labtechnologies, Offenburg, Germany). The percentage of GLUT4 at the PM was calculated for each condition. ALEXA594-WGA fluorescence was used to correct for variation in cell density in each well.
To determine the extent of insulin-induced GLUT4 translocation using the assay described supra, HA-GLUT4-expressing 3T3-L1 adipocytes grown in 96 well plates were incubated for 2 h in the absence of serum, whereafter 200 nM insulin was added at various time points and cell surface levels of HA-GLUT4 were analysed by indirect immunofluorescence labeling (FIG. 2B). Saturating levels of anti-HA and secondary antibodies were used to ensure that substantially all HA-GLUT4 molecules were labeled. A non-relevant antibody was used at the same concentration to determine the non-specific binding of the anti-HA antibody. Insulin stimulated the appearance of HA-GLUT4 at the PM with a half-time of about 2.5 min reaching a plateau by 12 min which was maintained for at least 60 min. No specific anti-HA labeling was detected in non-infected cells (FIG. 2A).

## C[C@]12CC[C@H](O)CC1=CC[C@@H]1[C@@H]2CC[C@]2(C)C(=O)CC[C@@H]12 [DHEA, Dehydroepiandrosterone]
GLUT1
  effect on levels of GLUT1 at the plasma membrane: enhance levels of GLUT1 at the plasma membrane

## CO[C@@H]1C[C@@H](C[C@H]2CC[C@H](C)[C@H]([C@@H](C)C(=O)O)O2)O[C@]2(O[C@](C)([C@H]3CC[C@@](C)([C@@H]4O[C@@H]([C@H]5O[C@@](O)(CO)[C@H](C)C[C@@H]5C)C[C@@H]4C)O3)C[C@H]2C)[C@@H]1C [Nigericin, nigericin]
GLUT4; Chu et al., J Cell Biochem. 2002;85:83-91
  effect on insulin mediated GLUT4 translocation: inhibit insulin mediated GLUT4 translocation

## C[C@@H]1C[C@@H]([C@H](O)CC2CC(=O)NC(=O)C2)C(=O)[C@@H](C)C1 [cycloheximide]
[1]; 10 mg/ml cycloheximide for 2 h prior to the addition of antibody, FIG. 6F
  GLUT4 that could not be labeled during antibody uptake: 30%

## OC[C@H]1O[C@@](CO)(O[C@H]2O[C@H](CO)[C@@H](O)[C@H](O)[C@H]2O)[C@@H](O)[C@@H]1O [sucrose]
[2]
  level of HA-GLUT4 translocated to the plasma membrane: dramatically increases

## insulin
[1]; 200 nM insulin, up to 180 min
  HA-GLUT4 expressed in the cell that did not translocate to the membrane during the experiment: approximately 30%
[1]; 200 nM insulin, up to 180 min, FIG. 6A
  HA-GLUT4 labeled by anti-HA antibody uptake, percentage of total post-fixation labeling: approximately 30%
[1]; different doses of insulin, FIG. 8
  size of the recycling pool of GLUT4: incrementally increased with increasing doses
[3]; 600 nM insulin 24 or 48 h in the absence of serum (-serum or KRP), then 200 nM insulin
  levels of GLUT4 translocation after chronic insulin: little more than basal levels
[3]; 600 nM insulin 24 h in the presence of serum
  level of GLUT4 at the plasma membrane after chronic insulin: dramatically increased
[3]; 600 nM insulin 48 h in the presence of serum
  level of GLUT4 at the plasma membrane after chronic insulin: suppressed
[4]; 200 nM insulin versus 100 nM wortmannin (basal), GLUT4 WT and TAIL
  effect on GLUT4 internalization rate: unaffected
[4]; in the presence of 200 nM insulin, after transfer from ice to 37° C.
  time until level of GLUT4 at the PM reached steady state: approximately 5 min
[5]; followed by rapid reduction
  time to maximum level of surface GLUT4: 6 min
[5]; maximum level
  increase in surface GLUT4 above non-stimulated cells: 5 fold
[6]; 200 nM insulin
  time for which plateau of HA-GLUT4 at the PM was maintained: at least 60 min
[6]; 200 nM insulin after 2 h in the absence of serum
  time to plateau of HA-GLUT4 at the PM: ≤ 12 min
[6]; 200 nM insulin after 2 h in the absence of serum, 96 well plates
  half-time of appearance of HA-GLUT4 at the PM: about 2.5 min
[6]; 200 nM insulin for up to 3 hours, FIG. 6H
  effect of long-term insulin treatment on cell surface HA-GLUT4 levels: did not drastically down-regulate cell surface GLUT4 levels
[6]; 200 nM insulin, basal value 4%
  level of GLUT4 at the PM as percentage of total specific fluorescence: 34%
[6]; adipocytes, 200 nM insulin
  increase in cell surface GLUT4 levels in response to insulin stimulation: ~8 fold

## margatoxin (TIINVKCTSPKQCLPPCKAQFGQSAGAKCMNGKCKCYPH; UniProt P40755 1-39, looked up)
GLUT4; suppression of Kv1.3 activity, Xu et al, Proc Natl Acad Sci USA. 101:3112-3117, 2004
  effect on level of GLUT4 translocated to the plasma membrane: increase the level of GLUT4 translocated to the plasma membrane

From patent US20070141635A1, “Novel translocation assay” (priority 2003, published 2007)
